Data reported in ChEMBL document CHEMBL1130376, “Effects of taxoids from Taxus cuspidata on microtubule depolymerization and vincristine accumulation in MDR cells” (Bioorg Med Chem Lett, 1997).
In brackets after ≈: the same amount, converted by molar mass.

Columns and labels:
[1] = Vincristine (VCR) accumulation in multidrug resistant human ovarian cancer 2780 AD cells at a concentration 1 ug/mL; assay type: functional
[2] = Vincristine (VCR) accumulation in multidrug resistant human ovarian cancer 2780 AD cells at a concentration 10 ug/mL; assay type: functional
L1210 = test: Cytotoxicity against murine leukemia L1210 cells; assay type: functional, cell-based, Mus musculus; settings: Mus musculus, L1210; read-out: IC50
[3] = Cytotoxicity against human epidermoid carcinoma KB cells; assay type: functional, cell-based

SMILES: C=C1[C@@H](O)C[C@H](OC(C)=O)[C@@]2(C)[C@@H](OC(C)=O)[C@H](OC(C)=O)C3=C(C)[C@@H](OC(C)=O)C[C@@H]([C@@H](O)[C@H]12)C3(C)C
- vincristine accumulation (% of control) [1]: 205%
- vincristine accumulation (% of control) [2]: 439%
- IC50 (L1210): 10 µg/mL (≈ 18.6 µM)
- IC50 [3]: 7.4 µg/mL (≈ 13.8 µM)

SMILES: C=C1[C@@H](OC(=O)/C=C/c2ccccc2)C[C@H](OC(C)=O)[C@@]2(C)[C@@H](OC(C)=O)[C@H](OC(C)=O)C3=C(C)C(=O)C[C@@H]([C@@H](OC(C)=O)[C@H]12)C3(C)C
- vincristine accumulation (% of control) [1]: 116%
- vincristine accumulation (% of control) [2]: 438%
- IC50 (L1210): > 10 µg/mL
- IC50 [3]: > 10 µg/mL

SMILES: C=C1[C@@H](O)C[C@H](OC(C)=O)[C@@]2(COC(C)=O)[C@@H](OC(C)=O)[C@H](OC(C)=O)[C@]3(O)[C@@]4(C)CO[C@]3(C)C(=O)C[C@H]4[C@@H](OC(C)=O)[C@H]12
- vincristine accumulation (% of control) [1]: 142%
- vincristine accumulation (% of control) [2]: 198%
- IC50 (L1210): > 10 µg/mL
- IC50 [3]: > 10 µg/mL

SMILES: CC(=O)O[C@H]1C(=O)[C@@]2(C)[C@H]([C@H](OC(=O)c3ccccc3)[C@]3(O)C[C@H](OC(=O)[C@H](O)C(NC(=O)C4CCC4)c4ccccc4)C(C)=C1C3(C)C)[C@]1(OC(C)=O)CO[C@@H]1C[C@@H]2O (some centres undefined)
- vincristine accumulation (% of control) [1]: 88%
- vincristine accumulation (% of control) [2]: 93%
- IC50 (L1210): 0.25 µg/mL (≈ 0.301 µM)
- IC50 [3]: 0.086 µg/mL (≈ 0.103 µM)

SMILES: C=C1[C@@H](OC(=O)/C=C/c2ccccc2)CC[C@@]2(C)[C@@H](OC(C)=O)[C@H](OC(C)=O)C3=C(C)C(=O)C[C@@H]([C@@H](OC(C)=O)[C@H]12)C3(C)C
- vincristine accumulation (% of control) [1]: 195%
- vincristine accumulation (% of control) [2]: 571%
- IC50 (L1210): > 10 µg/mL
- IC50 [3]: > 10 µg/mL

SMILES: CC(=O)O[C@H]1C[C@H]2OC[C@@]2(OC(C)=O)[C@H]2[C@H](OC(C)=O)[C@]3(C(C)(C)O)C[C@H](OC(=O)/C=C/c4ccccc4)C(C)=C3[C@@H](OC(=O)c3ccccc3)[C@H](OC(C)=O)[C@]12C [TAXCHININ B]
- vincristine accumulation (% of control) [1]: 219%
- vincristine accumulation (% of control) [2]: 639%
- IC50 (L1210): 3.8 µg/mL (≈ 4.73 µM)
- IC50 [3]: > 10 µg/mL

SMILES: C=C1[C@@H](OC(=O)/C=C/c2ccccc2)C[C@H](OC(C)=O)[C@@]2(COC(C)=O)[C@@H](OC(C)=O)[C@H](O)[C@]3(O)[C@@]4(C)CO[C@]3(C)C(=O)C[C@H]4[C@@H](OC(C)=O)[C@H]12 [TAXUSPINE T]
- vincristine accumulation (% of control) [1]: 196%
- vincristine accumulation (% of control) [2]: 308%
- IC50 (L1210): 1 µg/mL (≈ 1.4 µM)
- IC50 [3]: 0.06 µg/mL (≈ 0.0842 µM)

SMILES: C=C1[C@@H](O)CC[C@@]2(C)[C@@H](OC(C)=O)[C@H](OC(C)=O)C3=C(C)C(=O)C[C@@H]([C@@H](OC(C)=O)[C@H]12)C3(C)C [TAXININE A]
- vincristine accumulation (% of control) [1]: 153%
- vincristine accumulation (% of control) [2]: 461%
- IC50 (L1210): 8.9 µg/mL (≈ 18.7 µM)
- IC50 [3]: > 10 µg/mL

SMILES: CC(=O)O[C@@H]1C2=C(C)[C@@H](O)C[C@@]2(C(C)(C)O)[C@@H](OC(C)=O)[C@@H]2[C@]3(OC(C)=O)CO[C@@H]3C[C@H](OC(C)=O)[C@@]2(C)[C@H]1OC(C)=O
- vincristine accumulation (% of control) [1]: 147%
- vincristine accumulation (% of control) [2]: 235%
- IC50 (L1210): > 10 µg/mL
- IC50 [3]: > 10 µg/mL

SMILES: C=C1[C@@H](OC(=O)/C=C/c2ccccc2)CC[C@@]2(C)[C@@H](OC(C)=O)[C@H](OC(C)=O)C3=C(C)C(=O)C[C@@](O)([C@@H](OC(C)=O)[C@H]12)C3(C)C
- vincristine accumulation (% of control) [1]: 167%
- vincristine accumulation (% of control) [2]: 436%
- IC50 (L1210): 4.6 µg/mL (≈ 7.39 µM)
- IC50 [3]: 6.9 µg/mL (≈ 11.1 µM)

SMILES: C=C1[C@@H](O)CC[C@@]2(C)[C@@H](OC(C)=O)[C@H](OC(C)=O)C3=C(C)C(=O)C[C@@H]([C@@H](O)[C@H]12)C3(C)C
- vincristine accumulation (% of control) [1]: 139%
- vincristine accumulation (% of control) [2]: 271%
- IC50 (L1210): > 10 µg/mL
- IC50 [3]: > 10 µg/mL

SMILES: C=C1[C@@H](OC(=O)/C=C/c2ccccc2)C[C@H](OC(C)=O)[C@@]2(CO)[C@@H](OC(C)=O)[C@H](OC(C)=O)[C@]3(O)[C@@]4(C)CO[C@]3(C)C(=O)C[C@H]4[C@@H](OC(C)=O)[C@H]12 [TAXUSPINE S]
- vincristine accumulation (% of control) [1]: 136%
- vincristine accumulation (% of control) [2]: 190%
- IC50 (L1210): 3.8 µg/mL (≈ 5.33 µM)
- IC50 [3]: 0.26 µg/mL (≈ 0.365 µM)

SMILES: CC(=O)O[C@H]1[C@@H]2[C@H](CO)[C@@H](OC(C)=O)C[C@H](OC(C)=O)[C@@]2(C)[C@@H](OC(C)=O)[C@H](OC(C)=O)C2=C(C)[C@@H](OC(C)=O)C[C@@H]1C2(C)C
- vincristine accumulation (% of control) [1]: 177%
- vincristine accumulation (% of control) [2]: 264%
- IC50 (L1210): 10 µg/mL (≈ 15.7 µM)
- IC50 [3]: 4.5 µg/mL (≈ 7.05 µM)

SMILES: C=C1[C@@H](OC(=O)/C=C/c2ccccc2)C[C@H](OC(C)=O)[C@]2(C)[C@@H]1C[C@]1(C(C)(C)O)C[C@H](OC(C)=O)C(C)=C1[C@@H](O)[C@@H]2OC(C)=O
- vincristine accumulation (% of control) [1]: 176%
- vincristine accumulation (% of control) [2]: 584%
- IC50 (L1210): 1.2 µg/mL (≈ 1.92 µM)
- IC50 [3]: 5.8 µg/mL (≈ 9.28 µM)

SMILES: C=C1[C@@H](OC(=O)CC(c2ccccc2)N(C)C)C[C@H](OC(C)=O)[C@@]2(C)[C@@H](OC(C)=O)[C@H](OC(C)=O)[C@@]3(O)C(C)=C(OC(C)=O)C[C@@H]([C@@H](OC(C)=O)[C@H]12)C3(C)C (some centres undefined)
- vincristine accumulation (% of control) [1]: 133%
- vincristine accumulation (% of control) [2]: 358%
- IC50 (L1210): 2.5 µg/mL (≈ 3.25 µM)
- IC50 [3]: 2.6 µg/mL (≈ 3.38 µM)

SMILES: C=C1[C@@H](OC(=O)/C=C/c2ccccc2)C[C@H](OC(C)=O)[C@]2(C)[C@@H]1C[C@@H]1C[C@H](OC(C)=O)C(C)=C([C@@H](OC(C)=O)[C@@H]2OC(C)=O)C1(C)C
- vincristine accumulation (% of control) [1]: 266%
- vincristine accumulation (% of control) [2]: 798%
- IC50 (L1210): 4.9 µg/mL (≈ 7.53 µM)
- IC50 [3]: > 10 µg/mL

SMILES: C=C1[C@@H](O)C[C@H](O)[C@@]2(C)[C@@H](OC(C)=O)[C@H](OC(C)=O)C3=C(C)C(=O)C[C@@]3(C(C)(C)O)[C@@H](OC(C)=O)[C@H]12
- vincristine accumulation (% of control) [1]: 151%
- vincristine accumulation (% of control) [2]: 191%
- IC50 (L1210): > 10 µg/mL
- IC50 [3]: > 10 µg/mL

SMILES: C=C1[C@@H](OC(=O)/C=C/c2ccccc2)C[C@H](OC(C)=O)[C@]2(C)[C@@H]1C[C@]1(C(C)(C)O)C[C@H](OC(C)=O)C(C)=C1[C@@H](OC(C)=O)[C@@H]2OC(C)=O [TAXUSPINE J]
- vincristine accumulation (% of control) [1]: 258%
- vincristine accumulation (% of control) [2]: 842%
- IC50 (L1210): > 10 µg/mL
- IC50 [3]: > 10 µg/mL

SMILES: C=C1[C@@H](OC(=O)/C=C/c2ccccc2)C[C@H](OC(C)=O)[C@]2(C)[C@@H]1C[C@]1(C(C)(C)O)C[C@H](OC(C)=O)C(C)=C1[C@@H](OC(=O)c1ccccc1)[C@@H]2OC(C)=O [TAXUSPINE A]
- vincristine accumulation (% of control) [1]: 142%
- vincristine accumulation (% of control) [2]: 246%
- IC50 (L1210): 4.2 µg/mL (≈ 5.76 µM)
- IC50 [3]: > 10 µg/mL

SMILES: CC(=O)O[C@H]1C[C@H]2OC[C@@]2(OC(C)=O)[C@H]2[C@H](OC(C)=O)[C@]3(C(C)(C)O)C[C@H](O)C(C)=C3[C@@H](OC(=O)c3ccccc3)[C@H](OC(C)=O)[C@]12C
- vincristine accumulation (% of control) [1]: 171%
- vincristine accumulation (% of control) [2]: 240%
- IC50 (L1210): > 10 µg/mL
- IC50 [3]: > 10 µg/mL

SMILES: C=C1[C@@H](OC(=O)/C=C/c2ccccc2)CC[C@@]2(C)[C@@H](OC(C)=O)[C@H](OC(C)=O)[C@@]34[C@H](C)C(=O)C[C@@H]([C@@H](OC(C)=O)C132)C4(C)C (some centres undefined)
- vincristine accumulation (% of control) [1]: 246%
- vincristine accumulation (% of control) [2]: 768%
- IC50 (L1210): 5.8 µg/mL (≈ 9.56 µM)
- IC50 [3]: > 10 µg/mL
